Source: ChEMBL document CHEMBL4673316, “Synthesis and evaluation of a UMI-77-based fluorescent probe for selective detecting Mcl-1 protein and imaging in living cancer cells” (Bioorg Med Chem, 2021)
Activity calls are given as the source filed them. The calls are words filed in the database; no cut-off is given here.

Assays:
Homo sapiens [1] = species on record: Homo sapiens; assay: Selectivity index, ratio of Ki for Bcl-2 (unknown origin) to Ki for Mcl-1 (unknown origin); conditions: dose 5.0 µM, time 20.0 min
[2] = target: T1, Induced myeloid leukemia cell differentiation protein Mcl-1 (Homo sapiens, UniProt Q07820); assay: Binding affinity to Mcl1 (unknown origin) at 5 uM incubated for 20 mins by fluorescence based assay (reference value: 0.66 %)
[3] = target: T1, Induced myeloid leukemia cell differentiation protein Mcl-1; assay: Binding affinity to Mcl1 in human PC-3 cells at 5 uM incubated for 30 mins in presence of UMI-77 by flow cytometry analysis; assay type: cell-based
Homo sapiens [4] = species on record: Homo sapiens; assay: Selectivity index, ratio of binding for BSA (unknown origin) to binding for Mcl-1 (unknown origin)
[5] = target: T1, Induced myeloid leukemia cell differentiation protein Mcl-1; assay: Binding affinity to Mcl1 in HUVEC cells at 5 uM incubated for 30 mins by fluorescence microscopy analysis; assay type: cell-based
[6] = target: T1, Induced myeloid leukemia cell differentiation protein Mcl-1; assay: Binding affinity to Mcl1 (unknown origin) at 5 uM incubated for 20 mins by fluorescence based assay relative to control
HUVEC = assay: Cytotoxicity against HUVEC cells assessed as reduction in cell viability at 5 to 50 uM incubated for 1 hr by CCK8 assay; assay type: cell-based; conditions: human, dose 5-50 µM
[7] = target: T1, Induced myeloid leukemia cell differentiation protein Mcl-1; assay: Binding affinity to Mcl1 (unknown origin) at 5 uM incubated for 20 mins in presence of 5 to 100 uM UMI-77 by fluorescence based assay
[8] = Effect on human PC-3 cells with knocked out Mcl1 gene at 5 uM incubated for 30 mins by fluorescence microscopic analysis; assay type: ADME, cell-based; conditions: pc-3, 0.5 h
[9] = target: T1, Induced myeloid leukemia cell differentiation protein Mcl-1; assay: Binding affinity to Mcl1 in human PC-3 cells at 5 uM incubated for 30 mins by flow cytometry analysis; assay type: cell-based
[10] = Drug localization in mitochondria of human PC-3 cells at 5 uM incubated for 30 mins by MitoTracker Red CMXRos dye and Hoechst 33342 nuclear dye based fluorescence microscopic analysis; assay type: ADME; conditions: pc-3, 0.5 h
[11] = target: T1, Induced myeloid leukemia cell differentiation protein Mcl-1; assay: Binding affinity to Mcl1 (unknown origin) at 5 uM incubated for 20 mins by fluorescence based assay
[12] = target: T1, Induced myeloid leukemia cell differentiation protein Mcl-1; assay: Binding affinity to Mcl1 in human PC-3 cells at 5 uM incubated for 30 mins by fluorescence microscopy analysis; assay type: cell-based
[13] = target: T1, Induced myeloid leukemia cell differentiation protein Mcl-1; assay: Binding affinity to Mcl1 in human PC-3 cells at 5 uM incubated for 30 mins in presence of UMI-77 by fluorescence microscopy analysis; assay type: cell-based
[14] = target: Apoptosis regulator Bcl-2 (Homo sapiens, UniProt P10415); assay: Inhibition of Bcl2 (unknown origin) using 5-FAM-Bid-BH3 as substrate incubated for 30 mins followed by substrate addition and measured after 20 mins by fluorescence polarization assay
[15] = target: T1, Induced myeloid leukemia cell differentiation protein Mcl-1; assay: Inhibition of Mcl-1 (unknown origin) using 5-FAM-Bid-BH3 as substrate incubated for 30 mins followed by substrate addition and measured after 20 mins by fluorescence polarization assay
PC-3 = assay: Cytotoxicity against human PC-3 cells assessed as reduction in cell viability at 5 to 50 uM incubated for 1 hr by CCK8 assay; assay type: cell-based; conditions: pc-3, 1 h, dose 5-50 µM

T1 sequence (Q07820 whole entry): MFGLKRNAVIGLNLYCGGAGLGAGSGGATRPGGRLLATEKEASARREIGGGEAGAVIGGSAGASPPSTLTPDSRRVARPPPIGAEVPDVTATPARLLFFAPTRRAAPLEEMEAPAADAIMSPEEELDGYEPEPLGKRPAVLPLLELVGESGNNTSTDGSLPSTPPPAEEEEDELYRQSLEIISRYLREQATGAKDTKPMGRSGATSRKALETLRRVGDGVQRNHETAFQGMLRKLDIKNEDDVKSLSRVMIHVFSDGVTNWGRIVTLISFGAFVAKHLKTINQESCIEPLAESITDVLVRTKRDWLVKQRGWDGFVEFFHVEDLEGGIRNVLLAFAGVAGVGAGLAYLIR
Apoptosis regulator Bcl-2, sequence (P10415 whole entry): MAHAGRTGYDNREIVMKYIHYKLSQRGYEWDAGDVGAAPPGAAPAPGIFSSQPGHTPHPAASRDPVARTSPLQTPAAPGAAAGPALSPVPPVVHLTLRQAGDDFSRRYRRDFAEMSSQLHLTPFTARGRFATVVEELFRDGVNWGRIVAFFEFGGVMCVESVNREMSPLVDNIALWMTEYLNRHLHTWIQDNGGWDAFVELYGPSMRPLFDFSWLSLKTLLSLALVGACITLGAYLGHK

Row | SMILES | Ratio Ki (Homo sapiens [1]) | Activity [2] [%] | Activity [3] | Ratio (Homo sapiens [4]) | Activity [5] | fold change (FC) [6] | Activity (HUVEC) | Activity [7] | Activity [8] | Activity [9] | Drug uptake [10] | Activity [11] | Activity [12] | Activity [13] | Ki [14] [µM] | Ki [15] [µM] | Activity (PC-3)
1 | CN(C)c1cccc2c(S(=O)(=O)Nc3cc(SCC(=O)O)c(O)c4ccccc34)cccc12 | 5 | 6.47 | inactive | 2 | inactive | 5 | Non-Toxic | inactive | Non-Toxic | Active | Active | Active | Active | inactive | 2.2 | 0.12 | Non-Toxic
2 | O=C(O)CSc1cc(NS(=O)(=O)c2ccc(Br)cc2)c2ccccc2c1O |  |  |  |  |  |  |  |  |  |  |  |  |  |  | 11 | 0.21 | 
